In the NIST ThermoML archive (doi:10.1021/acs.jced.8b00979):

Test: xn = mol fraction of the nth substance listed
Settings: 100 kPa, Liquid; for viscosity: Capillary tube (Ostwald / Ubbelohde) method; for mass density: Vibrating tube method

CCC(C)CO (stereo not given) [2-methyl-1-butanol] + CCCC(C)O
Settings | mass density [kg/m3] | viscosity [mPa·s]
288.15 K, x2 = 0 | 823.35 | 6.439
288.15 K, x2 = 0.1 | 822.37 | 6.154
288.15 K, x2 = 0.2 | 821.39 | 5.978
288.15 K, x2 = 0.301 | 820.41 | 5.83
288.15 K, x2 = 0.4 | 819.44 | 5.687
288.15 K, x2 = 0.5 | 818.45 | 5.556
288.15 K, x2 = 0.6 | 817.47 | 5.435
288.15 K, x2 = 0.7 | 816.47 | 5.323
288.15 K, x2 = 0.8 | 815.45 | 5.232
288.15 K, x2 = 0.9 | 814.4 | 5.154
293.15 K, x2 = 0 | 819.64 | 5.3
293.15 K, x2 = 0.1 | 818.65 | 5.034
293.15 K, x2 = 0.2 | 817.65 | 4.881
293.15 K, x2 = 0.301 | 816.65 | 4.762
293.15 K, x2 = 0.4 | 815.65 | 4.649
293.15 K, x2 = 0.5 | 814.64 | 4.548
293.15 K, x2 = 0.6 | 813.63 | 4.459
293.15 K, x2 = 0.7 | 812.6 | 4.377
293.15 K, x2 = 0.8 | 811.57 | 4.314
293.15 K, x2 = 0.9 | 810.5 | 4.251
298.15 K, x2 = 0 | 815.85 | 4.501
298.15 K, x2 = 0.1 | 814.84 | 4.249
298.15 K, x2 = 0.2 | 813.83 | 4.106
298.15 K, x2 = 0.301 | 812.81 | 3.99
298.15 K, x2 = 0.4 | 811.79 | 3.882
298.15 K, x2 = 0.5 | 810.75 | 3.787
298.15 K, x2 = 0.6 | 809.72 | 3.703
298.15 K, x2 = 0.7 | 808.68 | 3.625
298.15 K, x2 = 0.8 | 807.63 | 3.564
298.15 K, x2 = 0.9 | 806.54 | 3.496
303.15 K, x2 = 0 | 812.12 | 3.825
303.15 K, x2 = 0.1 | 811.09 | 3.585
303.15 K, x2 = 0.2 | 810.04 | 3.46
303.15 K, x2 = 0.301 | 808.98 | 3.355
303.15 K, x2 = 0.4 | 807.92 | 3.253
303.15 K, x2 = 0.5 | 806.85 | 3.163
303.15 K, x2 = 0.6 | 805.78 | 3.093
303.15 K, x2 = 0.7 | 804.7 | 3.028
303.15 K, x2 = 0.8 | 803.62 | 2.973
303.15 K, x2 = 0.9 | 802.49 | 2.91
308.15 K, x2 = 0 | 808.29 | 3.265
308.15 K, x2 = 0.1 | 807.23 | 3.047
308.15 K, x2 = 0.2 | 806.15 | 2.928
308.15 K, x2 = 0.301 | 805.06 | 2.83
308.15 K, x2 = 0.4 | 803.97 | 2.735
308.15 K, x2 = 0.5 | 802.86 | 2.653
308.15 K, x2 = 0.6 | 801.76 | 2.589
308.15 K, x2 = 0.7 | 800.64 | 2.53
308.15 K, x2 = 0.8 | 799.52 | 2.482
308.15 K, x2 = 0.9 | 798.36 | 2.422
313.15 K, x2 = 0 | 804.41 | 2.783
313.15 K, x2 = 0.1 | 803.33 | 2.586
313.15 K, x2 = 0.2 | 802.22 | 2.481
313.15 K, x2 = 0.301 | 801.08 | 2.398
313.15 K, x2 = 0.4 | 799.95 | 2.317
313.15 K, x2 = 0.5 | 798.81 | 2.248
313.15 K, x2 = 0.6 | 797.67 | 2.196
313.15 K, x2 = 0.7 | 796.51 | 2.151
313.15 K, x2 = 0.8 | 795.35 | 2.112
313.15 K, x2 = 0.9 | 794.14 | 2.062
318.15 K, x2 = 0 | 800.47 | 2.379
318.15 K, x2 = 0.1 | 799.36 | 2.199
318.15 K, x2 = 0.2 | 798.21 | 2.11
318.15 K, x2 = 0.301 | 797.03 | 2.037
318.15 K, x2 = 0.4 | 795.86 | 1.968
318.15 K, x2 = 0.5 | 794.68 | 1.91
318.15 K, x2 = 0.6 | 793.49 | 1.869
318.15 K, x2 = 0.7 | 792.29 | 1.835
318.15 K, x2 = 0.8 | 791.09 | 1.805
318.15 K, x2 = 0.9 | 789.84 | 1.764
323.15 K, x2 = 0 | 796.47 | 2.06
323.15 K, x2 = 0.1 | 795.33 | 1.898
323.15 K, x2 = 0.2 | 794.13 | 1.817
323.15 K, x2 = 0.301 | 792.91 | 1.754
323.15 K, x2 = 0.4 | 791.7 | 1.696
323.15 K, x2 = 0.5 | 790.47 | 1.649
323.15 K, x2 = 0.6 | 789.24 | 1.618
323.15 K, x2 = 0.7 | 788 | 1.59
323.15 K, x2 = 0.8 | 786.75 | 1.56
323.15 K, x2 = 0.9 | 785.47 | 1.525
328.15 K, x2 = 0 | 792.41 | 1.787
328.15 K, x2 = 0.1 | 791.24 | 1.649
328.15 K, x2 = 0.2 | 789.99 | 1.578
328.15 K, x2 = 0.301 | 788.72 | 1.525
328.15 K, x2 = 0.4 | 787.46 | 1.476
328.15 K, x2 = 0.5 | 786.19 | 1.44
328.15 K, x2 = 0.6 | 784.91 | 1.418
328.15 K, x2 = 0.7 | 783.62 | 1.396
328.15 K, x2 = 0.8 | 782.33 | 1.371
328.15 K, x2 = 0.9 | 781 | 1.346
